The values that follow come from ChEMBL document CHEMBL4673333, “Bioactive Limonoids and Triterpenoids from the Fruits of Melia azedarach” (J Nat Prod, 2020).

Holding throughout (assay type): functional, cell-based
One experiment relates to Bel-7402. As to the kind of experiment: Cytotoxicity against human Bel-7402 cells assessed as reduction in cell viability by CCK8 assay. (In general: Formazan colour is commonly taken as a measure of viable cells.)
A further experiment concerns HT-29. In words: Cytotoxicity against human HT-29 cells assessed as reduction in cell viability by CCK8 assay.
Another experiment has as its system U-251. In words: Cytotoxicity against human U-251 cells assessed as reduction in cell viability by CCK8 assay.
The next experiment deals with A549. As to the kind of experiment: Cytotoxicity against human A549 cells assessed as reduction in cell viability by CCK8 assay.
In the next experiment the test system is HCT-116. As to the kind of experiment: Cytotoxicity against human HCT-116 cells assessed as reduction in cell viability by CCK8 assay.

Molecules are shown by their SMILES. The source made the active and inactive calls. The rule behind the calls is not given here.

As to `CC(=O)O[C@H]1[C@@H](OC(=O)c2ccccc2)[C@@]2(C)C3=CC[C@@H](c4ccoc4)[C@]3(C)[C@@H](OC(C)=O)C[C@@H]2[C@@]2(C)[C@@H](O)C[C@@H](OC(C)=O)[C@](C)(C=O)[C@H]12`, the outcome in the experiment with Bel-7402, in the experiment on HT-29, in the experiment with U-251, in the experiment with A549 and in the experiment on HCT-116 was inactive.
`C/C=C(\C)C(=O)O[C@@H]1[C@@H]2OC[C@]3(C)[C@H](OC(C)=O)C[C@H](OC(C)=O)[C@@](C)([C@@H]23)[C@@H](CC(=O)OC)[C@]1(C)C1=C(C)[C@H](c2ccoc2)C[C@@H]1OC`: the result in the experiment on Bel-7402, with HT-29, in the experiment on U-251, in the experiment on A549 and with HCT-116 was inactive.
Regarding `COC(=O)C[C@H]1[C@]2(C)C3=C(C)[C@H](c4ccoc4)C[C@H]3O[C@@H]2[C@@H]2OC[C@]3(C)[C@H](OC(=O)/C=C/c4ccccc4)C[C@H](OC(=O)c4ccccc4)[C@@]1(C)[C@@H]23`, the result in the experiment with Bel-7402, in the experiment on HT-29, in the experiment with U-251, with A549 and with HCT-116 was inactive.
Regarding `CC(C)=CCC[C@H]1C(=O)O[C@H]2C[C@]3(C)C4=CC(=O)[C@H]5C(C)(C)[C@@H](O)CC[C@]5(C)[C@H]4CC[C@@]3(C)[C@@H]21`, the result in the experiment on Bel-7402, with HT-29, in the experiment on U-251, in the experiment on A549 and in the experiment with HCT-116 was inactive.
With `COC(=O)C[C@H]1[C@](C)(C2=C(C)[C@H](c3ccoc3)C[C@@H]2OC(C)=O)[C@H](OC(=O)c2ccccc2)[C@@H]2OC[C@]3(C)[C@H](OC(C)=O)C[C@H](OC(C)=O)[C@@]1(C)[C@@H]23`, the result with Bel-7402, in the experiment on HT-29, in the experiment with U-251, with A549 and in the experiment on HCT-116 was inactive.
Consider `COC(=O)C[C@H]1[C@]2(C)C3=C(C)[C@H](c4ccoc4)C[C@H]3O[C@@H]2[C@@H]2OC[C@]3(C)[C@H](OC(=O)c4ccccc4)C[C@H](OC(=O)/C=C/c4ccccc4)[C@@]1(C)[C@@H]23`, for which the outcome in the experiment with Bel-7402, in the experiment on HT-29, with U-251, with A549 and with HCT-116 was inactive.
In the case of `C/C=C(\C)C(=O)O[C@@H]1[C@@H]2OC[C@]3(C)[C@H](OC(C)=O)C[C@H](OC(C)=O)[C@@](C)([C@@H]23)[C@@H](CC(=O)OC)[C@]1(C)C1=C(C)[C@H](c2ccoc2)C[C@H]1OC`, the outcome with Bel-7402, with HT-29, in the experiment with U-251, in the experiment with A549 and in the experiment on HCT-116 was inactive.
As for `C/C=C(\C)C(=O)O[C@@H]1[C@@H]2OC[C@]3(C)[C@H](OC(C)=O)C[C@H](OC(C)=O)[C@@](C)([C@@H]23)[C@H]2C[C@H](O)O[C@H]3C[C@@H](c4ccoc4)C(C)=C3[C@]12C`, the result in the experiment on Bel-7402, in the experiment on HT-29, with U-251, in the experiment on A549 and in the experiment on HCT-116 was inactive.
With `CC(C)=CCC[C@@H](C(=O)O)[C@@H]1[C@@H](O)C[C@]2(C)C3=CC[C@H]4C(C)(C)[C@@H](O)CC[C@]4(C)[C@H]3C[C@@H](O)[C@@]12C`, the result in the experiment on Bel-7402, with HT-29, in the experiment with U-251, in the experiment on A549 and in the experiment with HCT-116 was inactive.
In the case of `C/C=C(\C)C(=O)O[C@H]1C[C@@H](OC(=O)c2ccccc2)[C@@]2(C)CO[C@H]3[C@H]4O[C@@H]5C[C@@H](c6ccoc6)C(C)=C5[C@@]4(C)[C@H](CC(=O)OC)[C@]1(C)[C@@H]32`, the result in the experiment on Bel-7402, in the experiment on HT-29, in the experiment on U-251, in the experiment on A549 and with HCT-116 was inactive.
With `COC(=O)C[C@H]1[C@]2(C)C3=C(C)[C@H](c4ccoc4)C[C@H]3O[C@@H]2[C@H](OC(C)=O)[C@H]2[C@](C)(C=O)[C@H](O)C[C@H](OC(=O)c3ccccc3)[C@@]21C`, the result in the experiment on Bel-7402, in the experiment with HT-29, in the experiment with U-251, in the experiment on A549 and in the experiment on HCT-116 was inactive.
Take `C/C=C(\C)C(=O)O[C@H]1C[C@@H](O)[C@@](C)(C=O)[C@@H]2[C@@H](OC(C)=O)[C@H]3O[C@@H]4C[C@@H](c5ccoc5)C(C)=C4[C@@]3(C)[C@H](CC(=O)OC)[C@@]12C`: the outcome with Bel-7402, with HT-29, in the experiment with U-251, in the experiment on A549 and with HCT-116 was inactive.
On to `CO[C@H]1O[C@@H]([C@H](O)C(C)(C)O)C[C@H]1[C@@H]1CC[C@]2(C)C3=CC[C@H]4C(C)(C)[C@@H](O)CC[C@]4(C)[C@H]3CC[C@@]12C`, for which the result with Bel-7402, in the experiment on HT-29, with U-251, in the experiment with A549 and with HCT-116 was inactive.
As to `CC(=O)O[C@H]1C[C@@H](OC(C)=O)[C@@]2(C)CO[C@H]3[C@@H](OC(=O)c4ccccc4)[C@@]4(C)C5=C(C)[C@H](c6ccoc6)C[C@@H]5O[C@@H](O)C[C@@H]4[C@]1(C)[C@@H]32`, the result with Bel-7402, with HT-29, with U-251, with A549 and with HCT-116 was inactive.
On to `COC(=O)C[C@H]1[C@](C)(C2=C(C)[C@H](c3ccoc3)C[C@@H]2OC)[C@H](OC(=O)c2ccccc2)[C@@H]2OC[C@]3(C)[C@H](OC(C)=O)C[C@H](OC(C)=O)[C@@]1(C)[C@@H]23`, for which the outcome in the experiment with Bel-7402, with HT-29, with U-251, with A549 and with HCT-116 was inactive.
`CO[C@@H]1O[C@@H]([C@H](O)C(C)(C)O)C[C@H]1[C@@H]1CC[C@]2(C)C3=CC[C@H]4C(C)(C)[C@@H](O)CC[C@]4(C)[C@H]3CC[C@@]12C`: the outcome in the experiment with Bel-7402, with HT-29, in the experiment with U-251, in the experiment with A549 and in the experiment on HCT-116 was inactive.
With `C=C(C)C(=O)O[C@@H]1[C@@H]2OC[C@]3(C)[C@H](OC(C)=O)C[C@H](OC(C)=O)[C@@](C)([C@@H]23)[C@@H](CC(=O)OC)[C@]1(C)C1=C(C)[C@H](c2ccoc2)C[C@@H]1OC`, the result with Bel-7402, with HT-29, in the experiment on U-251, in the experiment with A549 and in the experiment with HCT-116 was inactive.
With `CC(=O)O[C@H](C(=O)C=C(C)C)[C@H](C)[C@@H]1CC[C@]2(C)C3=CC[C@H]4C(C)(C)C(=O)CC[C@]4(C)[C@H]3C[C@@H](O)[C@@]12C`, the result with Bel-7402, with HT-29, in the experiment on U-251 and in the experiment on A549 was inactive. Further, the IC50 (as a rule, the midpoint of a concentration-inhibition curve) in the experiment on HCT-116 was determined as 5.9 µM.
Consider `COC(=O)C[C@H]1[C@](C)(C2=C(C)[C@H](c3ccoc3)C[C@H]2OC)[C@H](OC(=O)c2ccccc2)[C@@H]2OC[C@]3(C)[C@H](OC(C)=O)C[C@H](OC(C)=O)[C@@]1(C)[C@@H]23`, for which the result with Bel-7402, with HT-29, in the experiment with U-251, in the experiment on A549 and with HCT-116 was inactive.
With `C/C=C(\C)C(=O)O[C@@H]1C[C@H](OC(=O)/C=C/c2ccccc2)[C@@]2(C)[C@H]3[C@@H](OC[C@]13C)[C@H]1O[C@@H]3C[C@@H](c4ccoc4)C(C)=C3[C@@]1(C)[C@@H]2CC(=O)OC`, the result in the experiment on Bel-7402, in the experiment with HT-29, in the experiment with U-251, in the experiment with A549 and in the experiment with HCT-116 was inactive.
For the compound `COC(=O)C[C@H]1[C@]2(C)C3=C(C)[C@H](c4ccoc4)C[C@H]3O[C@@H]2[C@@H]2OC[C@]3(C)[C@H](OC(=O)c4ccccc4)C[C@H](OC(=O)c4ccccc4)[C@@]1(C)[C@@H]23`, the result with Bel-7402, in the experiment on HT-29, with U-251 and in the experiment with A549 was inactive. Further, the IC50 in the experiment with HCT-116 worked out at 0.3 µM.
